Data published in paper PMC9499525, “Tissue-restricted inhibition of mTOR using chemical genetics” (Proceedings of the National Academy of Sciences of the …, 2022).
pEC50: −log10 of the molar value.

Key:
[1] = Bidirectional Caco-2 cell permeability; type: in vitro ADME; settings: human, LC-MS
Protocol: PAMPA and Caco-2 membrane permeability assays […]
MS) after 5 hours. Bidirectional Caco-2 cell permeability assay was performed by Quintara
Discovery. Compounds were analyzed at 10 µM and measured by LC-MS after 1 hour.

[2] = system: S. cerevisiae BY4741 fpr1-KO expressing human FKBP12 variants; assay: Yeast disk diffusion growth inhibition assay; type: cell-based, Saccharomyces cerevisiae; settings: 100 µM on disk, 3 d
From the text: BY4741 fpr1::URA3 yeast were generated by homologous recombination, selected on Ura- synthetic complete medium and subsequently grown in yeast extract-peptone-dextrose (YPD) medium ([46]). Human FKBP12 coding sequence was cloned via Gibson assembly into a pCH043 yeast expression vector, which had been previously modified with an HIS3 selection open reading frame (ORF). The C-terminal HA-tag and F46/V55 mutations were introduced by site-directed mutagenesis PCR. Plasmids were transformed into the BY4741 fpr1::URA3 strain and selected on His- synthetic complete medium. Isolated strains were verified by plasmid sequencing. To prepare yeast protein lysates, 2 optical density (OD) equivalents from an overnight culture was resuspended in 200 µl 0.1 M NaOH and incubated at room temperature for 15 min. Cells were pelleted, resuspended in 50 µL 2x SDS loading dye, and heated at 95 °C for 5 min. Following centrifugation at 20,000 × g for 10 min, supernatant was saved for analysis.
Yeast strains containing FKBP12-expression vectors were shaken overnight at 30 °C in 3 mL His- synthetic complete media. 0.1 OD of culture was spun down, resuspended in 1 mL sterile water, and 100 µL was spread on His-synthetic media containing galactose/raffinose to induce protein expression. Plates were incubated at 30 °C for 1 h to dry. Filter paper circles were prepared with a hole punch, placed on the plate, and 5 µL of DMSO, 100 µM rapamycin, or 100 µM Rapa* compound was pipetted onto the filter paper. Plates were incubated at 30 °C for 3 d before zones of growth inhibition were measured.

[3] = molecular target: T1, FKBP12-HA (wild-type) / GST-mTOR FRB domain ternary complex (Homo sapiens, UniProt P42345+P62942); assay: TR-FRET ternary complex formation, wild-type FKBP12 with mTOR FRB; type: binding; settings: wild-type FKBP12 + mTOR FRB, n = 3, read-out: EC50 of ternary complex induction, wild-type FKBP12
T1 construct: recombinant HA-tagged wild-type or V55G mutant FKBP12 with GST-tagged mTOR FRB domain; 8xHis (cleaved yes); made in house; host or cells: E. coli BL21 (DE3) for FKBP12
T1 sequence (P62942 whole entry, the tested form may be a part): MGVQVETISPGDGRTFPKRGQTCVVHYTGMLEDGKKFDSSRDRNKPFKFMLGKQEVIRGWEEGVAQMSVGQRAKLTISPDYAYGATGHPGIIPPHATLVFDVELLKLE
T1 sequence (P42345 2012-2144 limits assumed): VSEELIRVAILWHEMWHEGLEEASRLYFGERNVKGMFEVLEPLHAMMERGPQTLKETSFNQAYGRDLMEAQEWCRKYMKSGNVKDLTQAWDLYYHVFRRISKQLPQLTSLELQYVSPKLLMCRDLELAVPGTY
Protocol: TR-FRET assay was performed using recommended conditions from Cisbio with slight modifications. FKBP12-HA, FKBP12 V55G-HA, and GST-mTORFRB recombinant proteins were each diluted to 5 nM in assay buffer (20 mM HEPES pH 7.5, 150 mM NaCl, 0.05% Tween-20, 0.1% bovine serum albumin [BSA], 0.5 mM dithiothreitol [DTT]). Anti-GST-Tb (Cisbio) and Anti-HA-XL665 (Cisbio) were diluted to 0.625 µg/mL and 5 µg/mL, respectively, in assay buffer. Rapa* compounds and FK506 were diluted to 50 µM and rapamycin to 5 µM in assay buffer containing 5% DMSO, and threefold serial dilution series were made from these solutions. […] Time-resolved fluorescence was read on a Tecan Spark 20M plate reader with the following parameters: Lag time: 60 µs; Integration time: 500 µs; Read A: Excitation filter 320 ([25]) nm, Emission filter 610 ([25]) nm, Gain 130; Read B: Excitation filter 320 ([25]) nm, Emission filter 665 ([8]) nm, Gain 165. […]
Human FKBP12 coding sequence was cloned a pET-47b bacterial expression vector using Gibson assembly and a C-terminal HA-tag was added by QuickChange PCR. FKBP12 proteins were expressed as 8xHis fusions in E. coli BL21 (DE3) cells. […]
PAMPA was performed by Quintara Discovery as described previously (2). Compounds were analyzed at 100 µM in PBS and measured using liquid chromatography-mass spectrometry (LC-MS) after 5 hours. […]

Q: Which Papp A→B at 1 h, 10 µM [1] does the source give for `CCO/N=C1/C[C@@H]([C@H](C)C[C@@H]2CC[C@@H](O)[C@H](OC)C2)OC(=O)[C@@H]2CCCCN2C(=O)C(=O)[C@]2(O)O[C@@H](CC[C@H]2C)C[C@H](OC)/C(C)=C/C=C/C=C/[C@@H](C)C[C@@H](C)C(=O)[C@H](OC)[C@H](O)/C(C)=C/[C@H]1C` [Rapa*-3Z] here?
A: Its Papp A→B at 1 h, 10 µM is under 0.5 ×10⁻⁶ cm/s.

Q: What about the Papp B→A at 1 h, 10 µM [1] of the same compound?
A: The Papp B→A at 1 h, 10 µM was 1 ×10⁻⁶ cm/s.

Q: What about the “Growth inhibition of yeast expressing FKBP12 V55G” value [2] of the same compound?
A: The value was “displayed the highest level of inhibition”.

Q: What about the pEC50 [3] of the same compound?
A: The pEC50 was 6.19.
